Measurements published in patent US10287275B2, “16-member triamilide derivatives and uses thereof” (VICTOR PHARMA CO., LTD. ZHENJIANG, priority 2015, dated 2019).
≈ marks a conversion by molar mass, not a printed value.

Columns and labels:
Test in all cases: Mycoplasma susceptibility testing (MIC)
Type in all cases: cell-based
M. gallisepticum S6 = details: Mycoplasmoides gallisepticum
Procedure: (§1) The MIC's in Table I and Table II were determined by standard agar-dilution assays or broth-dilution microtiter test.

M. hyorinis BTS-7 = test system: M. hyorinis BTS-7
Procedure: as §1

M. gallisepticum BG44T = details: Mycoplasmoides gallisepticum
Procedure: as §1

| SMILES | MIC (M. gallisepticum S6) | MIC (M. hyorinis BTS-7) | MIC (M. gallisepticum BG44T) |
| --- | --- | --- | --- |
| CC[C@H]1OC(=O)C[C@@H](O)[C@H](C)[C@@H](O[C@@H]2O[C@H](C)[C@@H](O)[C@H](N(C)C)[C@H]2O)[C@@H](CCN2CCCCC2)C[C@@H](C)C(=O)/C=C/C(C)=C/[C@@H]1CN(CC)Cc1ccccc1 [Compound 4i, (4R,5S,6S,7R,9R,11E,13E,15R,16R)-15-((benzyl(ethyl)amino)methyl)-6-(((2R,3R,4S,5S,6R)-4-(dimethylamino)-3,5-dihydroxy-6-methyltetrahydro-2H-pyran-2-yl)oxy)-16-ethyl-4-hydroxy-5,9,13-trimethyl-7-(2-(piperidin-1-yl)ethyl)oxacyclohexadeca-11,13-diene-2,10-dione] | < 0.12 µg/mL | 15.6 µg/mL (≈ 19.9 µM) | < 0.12 µg/mL |
| CC[C@H]1OC(=O)C[C@@H](O)[C@H](C)[C@@H](O[C@@H]2O[C@H](C)[C@@H](O)[C@H](N(C)C)[C@H]2O)[C@@H](CCN2CCCCC2)C[C@@H](C)C(=O)/C=C/C(C)=C/[C@@H]1CN(Cc1ccccc1)C(C)C [Compound 4j, (4R,5S,6S,7R,9R,11E,13E,15R,16R)-15-((benzyl(isopropyl)amino)methyl)-6-(((2R,3R,4S,5S,6R)-4-(dimethylamino)-3,5-dihydroxy-6-methyltetrahydro-2H-pyran-2-yl)oxy)-16-ethyl-4-hydroxy-5,9,13-trimethyl-7-(2-(piperidin-1-yl)ethyl)oxacyclohexadeca-11,13-diene-2,10-dione] | < 0.12 µg/mL | 0.49 µg/mL (≈ 0.614 µM) | < 0.12 µg/mL |
| CC[C@H]1OC(=O)C[C@@H](O)[C@H](C)[C@@H](O[C@@H]2O[C@H](C)[C@@H](O)[C@H](N(C)C)[C@H]2O)[C@@H](CCN2CC(C)CC(C)C2)C[C@@H](C)C(=O)/C=C/C(C)=C/[C@@H]1CN(Cc1ccccc1)C(C)C (stereo partly drawn) [Compound 8a, (4R,5S,6S,7R,9R,11E,13E,15R,16R)-15-((benzyl(isopropyl)amino)methyl)-6-(((2R,3R,4S,5S,6R)-4-(dimethylamino)-3,5-dihydroxy-6-methyltetrahydro-2H-pyran-2-yl)oxy)-7-(2-(3,5-dimethylpiperidin-1-yl)ethyl)-16-ethyl-4-hydroxy-5,9,13-trimethyloxacyclohexadeca-11,13-diene-2,10-dione] | < 0.12 µg/mL | 3.91 µg/mL (≈ 4.73 µM) | < 0.12 µg/mL |
| CC[C@H]1OC(=O)C[C@@H](O)[C@H](C)[C@@H](O[C@@H]2O[C@H](C)[C@@H](O)[C@H](N(C)C)[C@H]2O)[C@@H](CCN2CC(C)CC(C)C2)C[C@@H](C)C(=O)/C=C/C(C)=C/[C@@H]1CN(C)Cc1cccnc1 (stereo partly drawn) [Compound 8b, (4R,5S,6S,7R,9R,11E,13E,15R,16R)-6-(((2R,3R,4S,5S,6R)-4-(dimethylamino)-3,5-dihydroxy-6-methyltetrahydro-2H-pyran-2-yl)oxy)-7-(2-(3,5-dimethylpiperidin-1-yl)ethyl)-16-ethyl-4-hydroxy-5,9,13-trimethyl-15-((methyl(pyridin-3-ylmethyl)amino)methyl)oxacyclohexadeca-11,13-diene-2,10-dione] | 3.91 µg/mL (≈ 4.89 µM) | 125 µg/mL (≈ 156 µM) | 0.98 µg/mL (≈ 1.23 µM) |
| CC[C@H]1OC(=O)C[C@@H](O)[C@H](C)[C@@H](O[C@@H]2O[C@H](C)[C@@H](O)[C@H](N(C)C)[C@H]2O)[C@@H](CCN2CC(C)CC(C)C2)C[C@@H](C)C(=O)/C=C/C(C)=C/[C@@H]1CN1Cc2ccccc2C1 (stereo partly drawn) [Compound 8c, (4R,5S,6S,7R,9R,11E,13E,15R,16R)-6-(((2R,3R,4S,5S,6R)-4-(dimethylamino)-3,5-dihydroxy-6-methyltetrahydro-2H-pyran-2-yl)oxy)-7-(2-(3,5-dimethylpiperidin-1-yl)ethyl)-16-ethyl-4-hydroxy-15-(isoindolin-2-ylmethyl)-5,9,13-trimethyloxacyclohexadeca-11,13-diene-2,10-dione] | 15.6 µg/mL (≈ 19.6 µM) | 125 µg/mL (≈ 157 µM) | 7.82 µg/mL (≈ 9.82 µM) |
| CC[C@H]1OC(=O)C[C@@H](O)[C@H](C)[C@@H](O[C@@H]2O[C@H](C)[C@@H](O)[C@H](N(C)C)[C@H]2O)[C@@H](CCN2Cc3ccccc3C2)C[C@@H](C)C(=O)/C=C/C(C)=C/[C@@H]1CN(C)Cc1ccccc1 [Compound 12a, (4R,5S,6S,7R,9R,11E,13E,15R,16R)-15-((benzyl(methyl)amino)methyl)-6-(((2R,3R,4S,5S,6R)-4-(dimethylamino)-3,5-dihydroxy-6-methyltetrahydro-2H-pyran-2-yl)oxy)-16-ethyl-4-hydroxy-7-(2-(isoindolin-2-yl)ethyl)-5,9,13-trimethyloxacyclohexadeca-11,13-diene-2,10-dione] | < 0.12 µg/mL | 15.6 µg/mL (≈ 19.4 µM) | < 0.12 µg/mL |
| CC[C@H]1OC(=O)C[C@@H](O)[C@H](C)[C@@H](O[C@@H]2O[C@H](C)[C@@H](O)[C@H](N(C)C)[C@H]2O)[C@@H](CCN2Cc3ccccc3C2)C[C@@H](C)C(=O)/C=C/C(C)=C/[C@@H]1CN1CCCCC1 [Compound 12b, (4R,5S,6S,7R,9R,11E,13E,15R,16R)-6-(((2R,3R,4S,5S,6R)-4-(dimethylamino)-3,5-dihydroxy-6-methyltetrahydro-2H-pyran-2-yl)oxy)-16-ethyl-4-hydroxy-7-(2-(isoindolin-2-yl)ethyl)-5,9,13-trimethyl-15-(piperidin-1-ylmethyl)oxacyclohexadeca-11,13-diene-2,10-dione] | < 0.12 µg/mL | 3.91 µg/mL (≈ 5.09 µM) | < 0.12 µg/mL |
| CC[C@H]1OC(=O)C[C@@H](O)[C@H](C)[C@@H](O[C@@H]2O[C@H](C)[C@@H](O)[C@H](N(C)C)[C@H]2O)[C@@H](CCN2Cc3ccccc3C2)C[C@@H](C)C(=O)/C=C/C(C)=C/[C@@H]1CN(CC)CC [Compound 12c, (4R,5S,6S,7R,9R,11E,13E,15R,16R)-15-((diethylamino)methyl)-6-(((2R,3R,4S,5S,6R)-4-(dimethylamino)-3,5-dihydroxy-6-methyltetrahydro-2H-pyran-2-yl)oxy)-16-ethyl-4-hydroxy-7-(2-(isoindolin-2-yl)ethyl)-5,9,13-trimethyloxacyclohexadeca-11,13-diene-2,10-dione] | < 0.12 µg/mL | 7.82 µg/mL (≈ 10.3 µM) | < 0.12 µg/mL |
| CC[C@H]1OC(=O)C[C@@H](O)[C@H](C)[C@@H](O[C@@H]2O[C@H](C)[C@@H](O)[C@H](N(C)C)[C@H]2O)[C@@H](CCN2Cc3ccccc3C2)C[C@@H](C)C(=O)/C=C/C(C)=C/[C@@H]1CN1CC(C)CC(C)C1 (stereo partly drawn) [Compound 12d, (4R,5S,6S,7R,9R,11E,13E,15R,16R)-6-(((2R,3R,4S,5S,6R)-4-(dimethylamino)-3,5-dihydroxy-6-methyltetrahydro-2H-pyran-2-yl)oxy)-15-((3,5-dimethylpiperidin-1-yl)methyl)-16-ethyl-4-hydroxy-7-(2-(isoindolin-2-yl)ethyl)-5,9,13-trimethyloxacyclohexadeca-11,13-diene-2,10-dione] | < 0.12 µg/mL | 3.91 µg/mL (≈ 4.91 µM) | < 0.12 µg/mL |
